Assays:
human GHS receptor [1] = target: T1, human GHS receptor (Homo sapiens, UniProt Q92847); assay: Ghrelin IP1 agonist assay (IP1 HTRF); assay type: cell-based; parameters: expressed in transfected cells; host or cells: HEK293s; details: for Emax: 2 h, agonist effect as % maximal effect of GHRP-6 (5 μM), read-out: h IP1 ag %; for EC50: HEK293s cells stably expressing human GHS receptor, 2 hours at 37° C., read-out: h IP1 ag EC50
Summary of the method: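 Cells: HEK293s stably expressing human GHS receptor, in stimulation buffer containing 0.02% fatty acid free BSA.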

human GHS receptor [2] = target: T1, human GHS receptor; assay: h bind IC50 (binding assay, Table 1); details: human receptor; Table 1

T1 sequence (Q92847 whole entry): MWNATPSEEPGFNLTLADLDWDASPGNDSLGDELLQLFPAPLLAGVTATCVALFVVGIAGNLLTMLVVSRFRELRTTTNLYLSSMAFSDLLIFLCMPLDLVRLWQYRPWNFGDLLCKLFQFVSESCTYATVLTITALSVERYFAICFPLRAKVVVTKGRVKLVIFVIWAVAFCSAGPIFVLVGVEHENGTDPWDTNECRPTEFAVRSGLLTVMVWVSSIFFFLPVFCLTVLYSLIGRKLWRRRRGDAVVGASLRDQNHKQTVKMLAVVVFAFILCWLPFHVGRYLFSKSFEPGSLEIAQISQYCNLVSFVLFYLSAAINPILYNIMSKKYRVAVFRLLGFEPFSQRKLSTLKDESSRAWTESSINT

Compound | Emax (human GHS receptor [1]) | EC50 (human GHS receptor [1]) | IC50 (human GHS receptor [2])
CN(C)[C@H]1CCN(c2ccc(Cl)c(C(=O)NC(=O)Nc3nc4ccc(S(C)(=O)=O)cc4s3)c2)C1 [Example 235, (S)-2-chloro-5-(3-(dimethylamino)pyrrolidin-1-yl)-N-(6-(methylsulfonyl)benzo[d]thiazol-2-ylcarbamoyl) benzamide] | 19.6% | ≥ 20000 nM | 22.7 nM
CN(C)C1CCN(c2ccc(Cl)c(C(=O)NC(=O)Nc3nc4ccc(S(C)(=O)=O)cc4s3)c2)CC1 [Example 236, 2-chloro-5-(4-(dimethylamino)piperidin-1-yl)-N-(6-(methylsulfonyl)benzo[d]thiazo1-2-ylcarbamoyl) benzamide] | 3.72% | ≥ 20000 nM | 4090 nM
Cc1cc(C)n(-c2ccc(Cl)c(C(=O)NC(=O)Nc3nc4ccc(S(=O)(=O)CCCN5CCN(C)CC5)cc4s3)c2)n1 [Example 237, 2-chloro-5-(3,5-dimethyl-1H-pyrazol-1-yl)-N-(6-(3-(4-methylpiperazin-1-yl)propylsulfonyl)benzo[d]thiazol-2-ylcarbamoyl) benzamide] | 0% | ≥ 20000 nM | 0.7 nM
CN1CCCN(CCCS(=O)(=O)c2ccc3nc(NC(=O)NC(=O)c4cc(I)ccc4Cl)sc3c2)CC1 [Example 238, 2-chloro-5-iodo-N-(6-(3-(4-methyl-1,4-diazepan-1-yl)propylsulfonyl)benzo[d]thiazol-2-ylcarbamoyl) benzamide] | 9.98% | 43.4 nM | 0.47 nM
CCN(CC)C1CCN(c2ccc(Cl)c(C(=O)NC(=O)Nc3nc4ccc(S(C)(=O)=O)cc4s3)c2)C1 (stereo not drawn) [Example 239, 2-chloro-5-(3-(diethylamino)pyrrolidin-1-yl)-N-(6-(methylsulfonyl)benzo[d]thiazol-2-ylcarbamoyl) benzamide] | 0% | ≥ 20000 nM | 150 nM
CN1CCN(CCCS(=O)(=O)c2ccc3nc(NC(=O)NC(=O)c4cccc(-n5cccn5)c4Cl)sc3c2)CC1 [Example 240, 2-chloro-N-(6-(3-(4-methylpiperazin-1-yl)propylsulfonyl)benzo[d]thiazol-2-ylcarbamoyl)-3-(1H-pyrazol-1-yl)benzamide] | 80.9% | 28.1 nM | 8.83 nM
CN1CCN(CCCS(=O)(=O)c2ccc3nc(NC(=O)NC(=O)c4cc(-n5cccn5)c(Cl)cc4Cl)sc3c2)CC1 [Example 241, 2,4-dichloro-N-(6-(3-(4-methylpiperazin-1-yl)propylsulfonyl)benzo[d]thiazol-2-ylcarbamoyl)-5-(1H-pyrazol-1-yl)benzamide] | 0% | ≥ 20000 nM | 0.31 nM
COc1cc(Cl)c(C(=O)NC(=O)Nc2nc3ccc(S(=O)(=O)CCCN4CCN(C)CC4)cc3s2)cc1-n1cccn1 [Example 242, 2-chloro-4-methoxy-N-(6-(3-(4-methylpiperazin-1-yl)propylsulfonyl)benzo[d]thiazol-2-ylcarbamoyl) 5-(1H-pyrazol-1-yl)benzamide] | 9.32% | ≥ 20000 nM | 0.62 nM
CC(C)(C)OC(=O)N1CCC(Oc2ccc(Cl)c(C(=O)NC(=O)Nc3nc4ccc(S(C)(=O)=O)cc4s3)c2)CC1 [Example 243, tert-butyl 4-(4-chloro-3-(6-(methylsulfonyl)benzo[d]thiazol-2-ylcarbamoyl-carbamoyl)phenoxy) piperidine-1-carboxylate] | 7.67% | 9.34 nM | 14.3 nM
CN1CCC(Oc2ccc(Cl)c(C(=O)NC(=O)Nc3nc4ccc(S(C)(=O)=O)cc4s3)c2)CC1 [Example 244, 2-chloro-5-(1-methylpiperidin-4-yloxy)-N-(6-(methylsulfonyl)benzo[d]thiazol-2-ylcarbamoyl) benzamide] | 22.6% | 19700 nM | 2060 nM
CC(C)(CN1CCCC1)S(=O)(=O)c1ccc2nc(NC(=O)NC(=O)c3cc(N4CCOCC4)ccc3Cl)sc2c1 [Example 245, 2-chloro-N-(6-(2-methyl-1-(pyrrolidin-1-yl)propan-2-ylsulfonyl)benzo[d]thiazol-2-ylcarbamoyl)-5-morpholino-benzamide] | 0% | ≥ 20000 nM | 6.52 nM
CC(C)NCC(C)(C)S(=O)(=O)c1ccc2nc(NC(=O)NC(=O)c3cc(N4CCOCC4)ccc3Cl)sc2c1 [Example 246, 2-chloro-N-(6-(1-(isopropylamino)-2-methylpropan-2-ylsulfonyl)benzo[d]thiazol-2-ylcarbamoyl)-5-morpholino-benzamide] | 0% | ≥ 20000 nM | 2.08 nM
CN(C)c1cccnc1-c1ccc(Cl)c(C(=O)NC(=O)Nc2nc3ccc(S(C)(=O)=O)cc3s2)c1 [Example 247] | 0% | ≥ 20000 nM | 452 nM
CC(C)(C)OC(=O)N1CCC(Oc2ccc(Cl)c(C(=O)NC(=O)Nc3nc4ccc(S(C)(=O)=O)cc4s3)c2)C1 (stereo not drawn) [Example 248, tert-butyl 3-(4-chloro-3-(6-(methylsulfonyl)benzo[d]thiazol-2-ylcarbamoyl-carbamoyl)phenoxy) pyrrolidine-1-carboxylate] | 3.07% | 347 nM | 59 nM
CS(=O)(=O)c1ccc2nc(NC(=O)NC(=O)c3cc(OC4CCNC4)ccc3Cl)sc2c1 (stereo not drawn) [Example 249, 2-chloro-N-(6-(methylsulfonyl)benzo[d]thiazol-2-ylcarbamoyl) 5-(pyrrolidin-3-yloxy)benzamide] | 3.13% | 4900 nM | 8080 nM
CN1CCC(Oc2ccc(Cl)c(C(=O)NC(=O)Nc3nc4ccc(S(C)(=O)=O)cc4s3)c2)C1 (stereo not drawn) [Example 250, 2-chloro-5-(1-methylpyrrolidin-3-yloxy)-N-(6-(methylsulfonyl)benzo[d]thiazol-2-ylcarbamoyl) benzamide] | 6.82% | 5130 nM | 3780 nM
CN(C)c1cccc(-c2ccc(Cl)c(C(=O)NC(=O)Nc3nc4ccc(S(C)(=O)=O)cc4s3)c2)n1 [Example 251, 2-chloro-5-(6-(dirnethylamino)pyridin-2-yl)-N-(6-(methylsulfonyl)benzo[d]thiazol-2-ylcarbamoyl) benzamide] | 0% | ≥ 20000 nM | 34.4 nM
CC(C)(C)OC(=O)N1CC(Oc2ccc(Cl)c(C(=O)NC(=O)Nc3nc4ccc(S(C)(=O)=O)cc4s3)c2)C1 [Example 252, tert-buty 3-(4-chloro-3-(6-(methylsulfonyl)benzo[d]thiazol-2-ylcarbamoyl-carbamoyl)phenoxy)azetidine-1-carboxylate] | 1% | 27.7 nM | 18.7 nM
CS(=O)(=O)c1ccc2nc(NC(=O)NC(=O)c3cc(OC4CNC4)ccc3Cl)sc2c1 [Example 253, 5-(azetidin-3-yloxy)-2-chloro-N-(6-(methylsulfonyl)benzo[d]thiazol-2-ylcarbamoyl) benzamide] | 5.84% | 4970 nM | 7600 nM
CN1CCC(S(=O)(=O)c2ccc3nc(NC(=O)NC(=O)c4cc(-n5cccn5)c(F)cc4Cl)sc3c2)CC1 [Example 254, 2-chloro-4-fluoro-N-(6-(1-methylpiperidin-4-ylsulfonyl)benzo [d]thiazol-2-ylcarbamoyl)-5-(1H-pyrazol-1-yl)benzamide] | 0% | ≥ 20000 nM | 5.69 nM
COc1cc(Cl)c(C(=O)NC(=O)Nc2nc3ccc(S(=O)(=O)C4CCN(C)CC4)cc3s2)cc1N1CCOCC1 [Example 255, 2-chloro-4-methoxy-N-(6-(1-methylpiperidin-4-ylsulfonyl)benzo [d]thiazol-2-ylcarbamoyl)-5-morpholino-benzamide] | 80.9% | ≥ 20000 nM | 7.91 nM
CCOc1cc(C(=O)NC(=O)Nc2nc3ccc(S(=O)(=O)C4CCN(C)CC4)cc3s2)c(Cl)cc1OC [Example 256, 2-chloro-5-ethoxy-4-methoxy-N-(6-(1-methylpiperidin-4-ylsulfonyl)benzo [d]thiazol-2-ylcarbamoyl) benzamide] | 0% | ≥ 20000 nM | 58.9 nM
CN1CC(Oc2ccc(Cl)c(C(=O)NC(=O)Nc3nc4ccc(S(C)(=O)=O)cc4s3)c2)C1 [Example 257, 2-chloro-5-(1-methylazetidin-3-yloxy)-N-(6-(methylsulfonyl)benzo[d]thiazol-2-ylcarbamoyl) benzamide] | 13.1% | ≥ 20000 nM | 846 nM
CN1CCC(S(=O)(=O)c2ccc3nc(NC(=O)NC(=O)c4cc(N5CCOCC5)c(Cl)cc4Cl)sc3c2)CC1 [Example 258, 2,4-dichloro-N-(6-(1-methylpiperidin-4-ylsulfonyl)benzo[d]thiazol-2-ylcarbamoyl)-5-morpholino-benzamide] | 2.45% | 3340 nM | 10.5 nM
CN1CCC(S(=O)(=O)c2ccc3nc(NC(=O)NC(=O)c4cc(-n5cccn5)c(Cl)cc4Cl)sc3c2)CC1 [Example 259, 2,4-dichloro-N-(6-(1-methylpiperidin-4-ylsulfonyl)benzo [d]thiazol-2-ylcarbamoyl)-5-(1H-pyrazol-1-yl)benzamide] | 0.653% | ≥ 20000 nM | 5.03 nM
Cc1cc(Cl)c(C(=O)NC(=O)Nc2nc3ccc(S(=O)(=O)C4CCN(C)CC4)cc3s2)cc1-n1cccn1 [Example 260, 2-chloro-4-methyl-N-(6-(1-methylpiperidin-4-ylsulfonyl)benzo [d]thiazol-2-ylcarbamoyl)-5-(1H-pyrazol-1-yl)benzamide] | 1.52% | 9230 nM | 5.78 nM
CCOc1cc(Cl)c(C(=O)NC(=O)Nc2nc3ccc(S(=O)(=O)C4CCN(C)CC4)cc3s2)cc1-n1cccn1 [Example 261, 2-chloro-4-ethoxy-N-(6-(1-methylpiperidin-4-ylsulfonyl)benzo [d]thiazol-2-ylcarbamoyl)-5-(1H-pyrazol-1-yl)benzamide] | 0% | ≥ 20000 nM | 0.93 nM
